Results from publication PMC8913315, “Comparison of glycoside hydrolase family 3 β-xylosidases from basidiomycetes and ascomycetes reveals evolutionarily distinct xylan degradation systems” (The Journal of Biological Chemistry, 2022).

Columns and labels:
[1] = target: T1, TrXyl3A (Trichoderma reesei, UniProt Q92458); assay: X-ray crystal structure, […] Å; format: binding; details: crystal soaked 1 h with 14 mM 4-thioxylobiose, pH 7.0; subsites -1 and +1
T1 construct: gene bxl1; kinetics: synthetic gene codon-optimized, pPICZalpha A, secreted from Pichia pastoris KM71H; crystals: protein gift from DuPont Industrial Bioscience; 777 residues; dimer in asymmetric unit

[2] = target: T2, PcBxl3 (Phanerodontia chrysosporium, UniProt Z9K6S9QQP9); assay: X-ray crystal structure, […] Å; format: binding; details: crystal soaked briefly in 100 mM xylobiose, 40% PEG 400; Endo H deglycosylated; subsite -1
T2 construct: cDNA from strain K-3, pPICZalpha A, secreted from Pichia pastoris KM71H; 743 residues; glycosylated, Endo H treated for crystals; monomer in asymmetric unit
T2 sequence (Z9K6S9QQP9 1-743): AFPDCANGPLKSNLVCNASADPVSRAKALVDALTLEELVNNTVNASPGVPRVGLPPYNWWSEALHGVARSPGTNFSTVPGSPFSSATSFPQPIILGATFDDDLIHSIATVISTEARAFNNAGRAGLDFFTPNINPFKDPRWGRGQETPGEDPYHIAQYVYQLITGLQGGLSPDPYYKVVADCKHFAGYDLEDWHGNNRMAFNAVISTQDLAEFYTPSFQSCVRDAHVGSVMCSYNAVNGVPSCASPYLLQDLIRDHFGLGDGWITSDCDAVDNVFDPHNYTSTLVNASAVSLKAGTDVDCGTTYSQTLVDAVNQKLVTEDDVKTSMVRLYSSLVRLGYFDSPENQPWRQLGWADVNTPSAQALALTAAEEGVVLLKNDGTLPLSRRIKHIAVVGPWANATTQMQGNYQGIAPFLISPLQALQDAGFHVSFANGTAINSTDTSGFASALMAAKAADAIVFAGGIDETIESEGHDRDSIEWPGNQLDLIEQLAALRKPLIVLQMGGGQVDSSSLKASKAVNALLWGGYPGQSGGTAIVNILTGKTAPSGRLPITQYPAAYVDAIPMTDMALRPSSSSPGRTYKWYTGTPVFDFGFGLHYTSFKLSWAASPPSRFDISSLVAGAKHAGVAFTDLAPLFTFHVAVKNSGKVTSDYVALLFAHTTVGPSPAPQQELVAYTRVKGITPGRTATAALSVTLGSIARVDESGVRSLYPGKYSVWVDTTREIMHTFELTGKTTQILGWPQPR

T1 sequence (Q92458 entry or part of it): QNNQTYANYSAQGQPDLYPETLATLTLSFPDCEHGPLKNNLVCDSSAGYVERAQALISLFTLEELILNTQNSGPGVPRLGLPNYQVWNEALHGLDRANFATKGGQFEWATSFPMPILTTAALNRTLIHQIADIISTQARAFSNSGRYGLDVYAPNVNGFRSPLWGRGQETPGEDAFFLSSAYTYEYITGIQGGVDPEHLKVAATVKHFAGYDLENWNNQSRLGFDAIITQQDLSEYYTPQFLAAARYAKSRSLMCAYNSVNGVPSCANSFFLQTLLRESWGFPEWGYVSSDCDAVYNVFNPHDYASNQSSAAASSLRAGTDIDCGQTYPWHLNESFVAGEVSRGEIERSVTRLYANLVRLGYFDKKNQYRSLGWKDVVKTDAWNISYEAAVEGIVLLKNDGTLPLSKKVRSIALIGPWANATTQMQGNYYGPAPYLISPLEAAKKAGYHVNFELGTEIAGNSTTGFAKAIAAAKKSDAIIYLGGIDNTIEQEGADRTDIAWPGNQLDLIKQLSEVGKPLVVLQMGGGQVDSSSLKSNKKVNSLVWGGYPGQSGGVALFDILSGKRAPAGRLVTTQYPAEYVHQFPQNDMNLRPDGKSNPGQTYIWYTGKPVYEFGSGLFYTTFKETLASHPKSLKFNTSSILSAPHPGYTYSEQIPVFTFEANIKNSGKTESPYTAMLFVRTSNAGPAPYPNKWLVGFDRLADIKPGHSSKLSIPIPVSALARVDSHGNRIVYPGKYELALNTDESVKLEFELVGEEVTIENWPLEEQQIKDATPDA

Row | Compound | X-ray crystal structure, 2.1 Å [1] | X-ray crystal structure, 3.08 Å [2]
1 | OC1OC[C@@H](S[C@@H]2OC[C@@H](O)[C@H](O)[C@H]2O)[C@H](O)[C@H]1O (some centres unmarked) [4-thioxylobiose] | The crystal structure of TrXyl3A bound with thioxylobiose was determined by molecular replacement | –
2 | OC1OC[C@@H](O)[C@H](O)[C@H]1O (some centres unmarked) [X, xylose] | – | The structure of PcBxl3 with xylose bound in the catalytic center was also determined
